Patent US10626106B2, “Substituted pyrrolidine amides I” (Gruenenthal GmbH, priority 2017, dated 2020)
Like-named read-outs stand apart in the source and are kept apart here.

Biological target: T1, Human Glucocorticoid Receptor (hGR) (Homo sapiens, UniProt P04150)
T1 construct: the resultant supernatant (=cytosol of IM9 cells) was centrifuged at 103,000 g for 60 minutes; host or cells: IM9 human lymphoblast cell line (cytosol fraction)
T1 sequence (P04150 1-777): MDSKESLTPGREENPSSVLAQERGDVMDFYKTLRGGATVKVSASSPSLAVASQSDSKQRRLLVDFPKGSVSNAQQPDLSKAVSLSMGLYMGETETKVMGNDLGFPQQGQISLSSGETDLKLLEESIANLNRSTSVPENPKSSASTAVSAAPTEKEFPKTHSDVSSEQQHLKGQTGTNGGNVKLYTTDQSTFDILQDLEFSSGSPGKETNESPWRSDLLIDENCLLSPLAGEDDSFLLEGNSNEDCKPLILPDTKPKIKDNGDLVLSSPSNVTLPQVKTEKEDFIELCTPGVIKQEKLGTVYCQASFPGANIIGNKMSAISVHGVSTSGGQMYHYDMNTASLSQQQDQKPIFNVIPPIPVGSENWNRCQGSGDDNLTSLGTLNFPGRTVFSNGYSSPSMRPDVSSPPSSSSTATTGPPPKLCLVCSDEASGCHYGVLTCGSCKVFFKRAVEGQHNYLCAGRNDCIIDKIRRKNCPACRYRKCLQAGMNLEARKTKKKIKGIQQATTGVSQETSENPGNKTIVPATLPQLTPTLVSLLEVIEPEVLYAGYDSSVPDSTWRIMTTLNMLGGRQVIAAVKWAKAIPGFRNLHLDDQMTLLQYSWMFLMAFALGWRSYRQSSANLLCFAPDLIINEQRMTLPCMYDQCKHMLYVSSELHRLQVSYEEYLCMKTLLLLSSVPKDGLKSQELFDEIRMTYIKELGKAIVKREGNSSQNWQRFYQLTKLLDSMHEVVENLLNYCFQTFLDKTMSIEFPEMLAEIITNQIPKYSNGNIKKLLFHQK
Test: Human Glucocorticoid Receptor (hGR) Ligand-Binding Assay (competitive 3H-dexamethasone binding, IM9 cytosol)
Conditions: read-out: % inhibition hGR at 1 μM
Description: Human Glucocorticoid Receptor (hGR) Ligand-Binding Assay
Potential selective glucocorticoid receptor modulators of this intervention can be tested for their binding affinity at the glucocorticoid receptor using the binding assay described below.
Preferably, the glucocortitcoid receptor extracted from cytosol of IM9 cells is used for competitive radioligand binding assays to calculate the IC50 values and binding affinity (Ki value) of the compounds according to the present invention. Preferably, a fixed concentration of the radioligand 3H-dexamethasone and a range of concentrations of compounds according to the present invention (as unlabeled competitors of dexamethasone) are mixed with the extracted glucocorticoid receptor in order to measure the potency/affinity with which they compete for the binding of the radioligand. Preferably, by using competition curves the IC50 which is the concentration of competing ligand that displaces 50% of the specific binding of the radioligand is determined. Finally this IC50 value is converted to a Ki value.
The human lymphoblast cell line IM9 (ATCC, Bethesda, Md.) were cultivated in RPMI 1640 media containing 10% fetal bovine serum, penicillin (100 U/ml), streptomycin (100 μg/ml), and 2 mM L-glutamine at […] and 7% CO2 in a humidified incubator. Cells were centrifuged for 10 minutes at 1500 g and were washed in PBS and repelleted. Cell were then resuspended in homogenization buffer consisting of: 10 mM TES, 10 mM sodium molybdate, 1 mM EDTA, pH 7.4, 20 mM 2-mercaptoethanol, and 10% glycerol. Disruption of the cells was performed by nitrogen cavitation using 2×15 minutes at 600 to 750 psi nitrogen in a N2 cavitator at 0° C. The cell preparation was then centrifuged at 27,000 g for 15 minutes, and the resultant supernatant (=cytosol of IM9 cells) was centrifuged at 103,000 g for 60 minutes at 4° C. The amount of protein in the supernatant fraction was determined using a BCA assay kit and aliquots were snap frozen in a dry ice-acetone bath and stored at −70° C. Competitive binding assays were done in duplicate in homogenization buffer with a total volume of 200 μl. To this end, 1 mg of IM9 cytosol, 0.05 μCi (1.5 nM) of 3H-dexamethasone […] and compounds according to the present invention (=unlabeled competitors of dexamethasone; range of concentrations) were mixed. The reaction was stopped after incubation at 0° C. for 16 to 18 hours by the addition of 100 μl of a charcoal-dextran mixture (2% activated charcoal, 0.5% dextran in 10 mM Tris, 1 mM EDTA, pH 7.4). Another incubation step at 0° C. for 10 minutes followed before the samples were centrifuged for 5 minutes at 8200 g. 100 μl of the supernatant) was finally assayed for radioactivity by liquid scintillationspectrometry, and the IC50 values were determined graphically and were converted to Ki values.

[1] = compound at 1 μM, competition with 3H-dexamethasone, cytosol of IM9 cells

Row | Compound | inhibition at 1 µM | inhibition at 1 µM [1]
1 | COc1cc(-n2ncc3cc(N4C(=O)C[C@H](NC(=O)C(C)(F)F)C4c4ccccc4)ccc32)ccn1 (stereo in doubt) [Example 27, trans-2,2-difluoro-N-(1-(1-(2-methoxypyridin-4-yl)-1H-indazol-5-yl)-5-oxo-2-phenylpyrrolidin-3-yl)propanamide] | 60 to 85% | –
2 | Cn1cc(-n2ncc3cc(N4C(=O)C[C@H](NC(=O)C(C)(F)F)[C@H]4c4cccc(Cl)c4)ccc32)ccc1=O [Example 1, N-((2R,3S)-2-(3-chlorophenyl)-1-(1-(1-methyl-6-oxo-1,6-dihydropyridin-3-yl)-1H-indazol-5-yl)-5-oxopyrrolidin-3-yl)-2,2-difluoropropanamide] | – | > 85%
3 | Cn1ccc(C(=O)N[C@H]2CC(=O)N(c3ccc4c(cnn4-c4ccc(=O)n(C)c4)c3)[C@@H]2c2ccccc2)n1 [Example 45, 1-methyl-N-[(2R,3S)-1-[1-(1-methyl-6-oxo-3-pyridyl)indazol-5-yl]-5-oxo-2-phenyl-pyrrolidin-3-yl]pyrazole-3-carboxamide] | – | 60 to 85%
4 | Cn1cc(-n2ncc3cc(N4C(=O)C[C@H](NC(=O)c5ncco5)[C@H]4c4ccccc4)ccc32)ccc1=O [Example 49, N-[(2R,3S)-1-[1-(1-methyl-6-oxo-3-pyridyl)indazol-5-yl]-5-oxo-2-phenyl-pyrrolidin-3-yl]oxazole-2-carboxamide] | – | > 85%
5 | Cn1cc(-n2ncc3cc(N4C(=O)C[C@H](NC(=O)C(C)(F)F)[C@H]4c4ccc(F)cc4)ccc32)ccc1=O [Example 17, 2,2-difluoro-N-((2R,3S)-2-(4-fluorophenyl)-1-(1-(1-methyl-6-oxo-1,6-dihydropyridin-3-yl)-1H-indazol-5-yl)-5-oxopyrrolidin-3-yl)propanamide] | > 85% | –
6 | CC(F)(F)C(=O)N[C@H]1CC(=O)N(c2ccc3c(cnn3-c3ncc(F)cn3)c2)C1c1ccccc1 (stereo in doubt) [Example 47, N-(trans-1-(1-(5-fluoropyrimidin-2-yl)-1H-indazol-5-yl)-5-oxo-2-phenylpyrrolidin-3-yl)-2,2-difluoropropanamide] | 60 to 85% | –
7 | Cn1cc(-n2ncc3cc(N4C(=O)C[C@H](NC(=O)C5(C)CC5)[C@H]4c4ccccc4)ccc32)ccc1=O [Example 26, 1-methyl-N-((2R,3S)-1-(1-(1-methyl-6-oxo-1,6-dihydropyridin-3-yl)-1H-indazol-5-yl)-5-oxo-2-phenylpyrrolidin-3-yl)cyclopropane-1-carboxamide] | – | 60 to 85%
8 | Cn1cc(-n2ncc3cc(N4C(=O)C[C@H](NC(=O)C(C)(F)F)C4c4ccccc4)ccc32)cn1 (stereo in doubt) [Example 46, N-(trans-1-(1-(1-methyl-1H-pyrazol-4-yl)-1H-indazol-5-yl)-5-oxo-2-phenylpyrrolidin-3-yl)-2,2-difluoropropanamide] | > 85% | –
9 | Cn1cc(-n2ncc3cc(N4C(=O)C[C@H](NC(=O)C(C)(F)F)[C@H]4c4ccccc4)ccc32)ccc1=O [Example 4, 2,2-difluoro-N-((2R,3S)-1-(1-(1-methyl-6-oxo-1,6-dihydropyridin-3-yl)-1H-indazol-5-yl)-5-oxo-2-phenylpyrrolidin-3-yl)propanamide] | > 85% | –
10 | Cc1ccccc1[C@@H]1[C@@H](NC(=O)C(C)(F)F)CC(=O)N1c1ccc2c(cnn2-c2ccc(=O)n(C)c2)c1 [Example 43, 2,2-difluoro-N-((2R,3S)-1-(1-(1-methyl-6-oxo-1,6-dihydropyridin-3-yl)-1H-indazol-5-yl)-5-oxo-2-(o-tolyl)pyrrolidin-3-yl)propanamide] | – | > 85%
11 | COc1cc([C@@H]2[C@@H](NC(=O)C(C)(F)F)CC(=O)N2c2ccc3c(cnn3-c3ccc(=O)n(C)c3)c2)ccn1 [Example 42, 2,2-difluoro-N-((2R,3S)-2-(2-methoxypyridin-4-yl)-1-(1-(1-methyl-6-oxo-1,6-dihydropyridin-3-yl)-1H-indazol-5-yl)-5-oxopyrrolidin-3-yl)propanamide] | – | 60 to 85%
